Measured values: patent US6720346B2, “Thiazole benzamide derivatives and pharmaceutical compositions for inhibiting cell proliferation” (Agouron Pharmaceuticals, Inc., priority 2001, dated 2004)
Where a name gives a salt, the structure may show the parent alone.

Assays:
Assay type in all cases: biochemical
CDK2/cyclin A = target: T1, CDK2/cyclin A (Homo sapiens, UniProt P24941); experiment: Inhibition of CDK2/cyclin A retinoblastoma kinase activity (Ki; % inhibition); conditions: apparent Ki, CDK2/cyclin A, Rb substrate
T1 construct: made in house; host or cells: CDK2: insect cells (baculovirus); cyclin A: E. coli
Procedure, shortened: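 Radiometric filter assay of CDK2/proteolyzed cyclin A (baculovirus-expressed human CDK2, 10 or 19 nM) phosphorylating an Rb fragment with 25 μM [³²P/³³P]ATP in pH 7.4 HEPES, 2% DMSO, at 30 °C for 60 or 75 min under initial-rate conditions. Library compounds screened at 30 nM for % inhibition; apparent Ki from concentration series fit to competitive or tight-binding inhibition equations.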

[1] = target: T2, human CDK1 (cdc2)/cyclin B (Homo sapiens, UniProt P06493); experiment: Inhibition of CDK1 (cdc2)/cyclin B histone H1 kinase activity; conditions: histone H1 substrate
T2 construct: purchased New England Biolabs (Beverly, Mass.)
Method: Cyclin-dependent kinase activity was measured by quantifying the enzyme-catalyzed, time-dependent incorporation of radioactive phosphate from [^32P]ATP or [^33P]ATP into a protein substrate. Unless noted otherwise, assays were performed in 96-well plates in a total volume of 50 μL, in the presence of 10 mM HEPES (N-[2-hydroxyethyl]piperazine-N′-[2-ethanesulfonic acid]) (pH 7.4), 10 mM MgCl2, 25 μM adenosine triphosphate (ATP), 1 mg/mL ovalbumin, 5 μg/mL leupeptin, 1 mM dithiothreitol, 10 mM β-glycerophosphate, 0.1 mM sodium vanadate, 1 mM sodium fluoride, 2.5 mM ethylene glycol-bis(β-aminoethyl ether)-N,N,N′N′-tetraacetic acid (EGTA), 2% (v/v) dimethylsulfoxide, and 0.03-0.4 μCi [^32/33P]ATP per reaction. Reactions were initiated with enzyme, incubated at 30° C., and terminated after 20 minutes by the addition of ethylenediaminetetraacetic acid (EDTA) to 250 mM. The phosphorylated substrate was then captured on a nitrocellulose or phosphocellulose membrane using a 96-well filtration manifold, and unincorporated radioactivity was removed by repeated washing with 0.85% phosphoric acid. Radioactivity was quantified by exposing the dried membranes to a phosphorimager.
Compounds from combinatorial libraries were screened from 96-well plates for % inhibition of CDK activity at 30 nM theoretical compound concentration. Inhibition was measured relative to control wells that contained all reaction components including 2% (v/v) DMSO but no compound, after subtraction of background radioactivity measured in the absence of enzyme. Apparent Ki values of discrete compounds were measured by assaying enzyme activity in the presence of different inhibitor compound concentrations and subtracting the background radioactivity measured in the absence of enzyme. The kinetic parameters (kcat, Km for ATP) were measured for each enzyme under the usual assay conditions by determining the dependence of initial rates on ATP concentration. Inhibition data were fit to an equation for competitive inhibition using Kaleidagraph (Synergy Software), or were fit to an equation for competitive tight-binding inhibition using the software KineTic (BioKin, Ltd.).
The complex of human CDK1 (cdc2) and cyclin B was purchased from New England Biolabs (Beverly, Mass.). Alternatively, a CDK1/glutathione-S-transferase-cyclin B1 complex was purified using glutathione affinity chromatography from insect cells that had been co-infected with the corresponding baculovirus expression vectors. The assay was executed as described above at 30° C. using 2.5 units of cdc2/cyclin B, 10 μg Histone H1 protein, and 0.1-0.3 μCi [^32/33P]ATP per assay. Phosphorylated histone substrate was captured by microfiltration on a phosphocellulose P81 membrane and quantified using a phosphorimager as described above. Ki values were measured using the described curve-fitting programs.

[2] = target: T3, phosphorylated LCK kinase (Homo sapiens, UniProt P06239, C224D/P223M); experiment: Inhibition of phosphorylated LCK tyrosine kinase activity (coupled spectrophotometric assay); conditions: read-out: P-LCK % Inhibition at 1 μM
T3 construct: starting from amino acid 223 to the end of the protein at amino acid 509; made in house; host or cells: insect cells
Method: Cloning, expression and purification of the cytosolic domain of FGFR1 tyrosine kinase (amino acids 456-766) containing three amino acid substitutions (L457V, C488A, and C584S) were conducted as previously described (Mohammadi, M., Schiessinger, J., & Hubbard, S. R. Cell, 86, (1996) 577-587). This domain was expressed in Sf9 insect cells using a baculovirus expression vector, and protein was purified using conventional techniques. The LCK tyrosine kinase was expressed in insect cells as an N-terminal deletion starting from amino acid 223 to the end of the protein at amino acid 509. The N-terminus of the protein also had two amino acid substitutions, P223M and C224D. Kinases were purified using conventional chromatographic methods.
Tyrosine kinase activity was measured using a coupled, continuous spectrophotometric assay, in which production of phosphorylated poly(Glu,Tyr; 4:1) substrate and ADP is coupled to the pyruvate kinase-catalyzed transfer of a phosphate from phosphoenolpyruvate to ADP, with generation of pyruvate and regeneration of ATP. Pyruvate production is in turn coupled to the lactate dehydrogenase-catalyzed reduction of pyruvate to form lactate, with concomitant conversion of NADH to NAD^+. Loss of NADH is monitored by measuring absorbance at 340 nm (see e.g., Technikova-Dobrova et al., “Spectrophotometric Determination of Functional Characteristics of Protein Kinases with Coupled Enzymatic Assay,” FEBS Letters, 292 (1991), pp. 69-72). Enzyme activity was measured in the presence of 200 mM HEPES (pH 7.5), 2 mM phosphoenolpyruvate, 0.3 mM NADH, 20 mM MgCl2, 100 μM ATP, 5 mM DTT, 5.1 or 25 mM poly (Glu,Tyr) 4:1 for P-FGF or P-LCK assays, respectively, and 15 units/mL each of pyruvate kinase and lactate dehydrogenase. Phosphorylated FGF receptor kinase was present at 100 nM and phosphorylated LCK kinase was present at 50 nM. Assays were performed under initial rate conditions at 37° C., and rates were corrected for any background rate measured in the absence of enzyme. Percent inhibition was calculated relative to control enzyme assayed in the presence of 2% (v/v) DMSO.

T3 sequence (P06239 223-509 P223M/C224D): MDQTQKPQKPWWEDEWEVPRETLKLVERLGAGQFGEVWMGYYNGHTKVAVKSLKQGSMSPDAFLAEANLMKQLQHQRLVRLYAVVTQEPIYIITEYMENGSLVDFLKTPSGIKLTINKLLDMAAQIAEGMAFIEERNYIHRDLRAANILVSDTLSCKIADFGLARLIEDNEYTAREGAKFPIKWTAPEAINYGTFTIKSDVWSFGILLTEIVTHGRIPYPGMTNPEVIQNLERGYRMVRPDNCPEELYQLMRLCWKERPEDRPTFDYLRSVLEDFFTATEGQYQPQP
T2 sequence (P06493 whole entry): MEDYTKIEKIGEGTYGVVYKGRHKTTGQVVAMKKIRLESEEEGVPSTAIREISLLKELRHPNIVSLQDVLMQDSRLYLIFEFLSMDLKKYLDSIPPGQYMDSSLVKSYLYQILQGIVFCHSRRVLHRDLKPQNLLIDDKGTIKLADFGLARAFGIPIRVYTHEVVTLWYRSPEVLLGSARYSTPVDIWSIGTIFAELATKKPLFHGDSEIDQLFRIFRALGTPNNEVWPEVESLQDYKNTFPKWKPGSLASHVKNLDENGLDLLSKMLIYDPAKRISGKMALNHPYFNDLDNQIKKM
T2 sequence (P14635 whole entry partner): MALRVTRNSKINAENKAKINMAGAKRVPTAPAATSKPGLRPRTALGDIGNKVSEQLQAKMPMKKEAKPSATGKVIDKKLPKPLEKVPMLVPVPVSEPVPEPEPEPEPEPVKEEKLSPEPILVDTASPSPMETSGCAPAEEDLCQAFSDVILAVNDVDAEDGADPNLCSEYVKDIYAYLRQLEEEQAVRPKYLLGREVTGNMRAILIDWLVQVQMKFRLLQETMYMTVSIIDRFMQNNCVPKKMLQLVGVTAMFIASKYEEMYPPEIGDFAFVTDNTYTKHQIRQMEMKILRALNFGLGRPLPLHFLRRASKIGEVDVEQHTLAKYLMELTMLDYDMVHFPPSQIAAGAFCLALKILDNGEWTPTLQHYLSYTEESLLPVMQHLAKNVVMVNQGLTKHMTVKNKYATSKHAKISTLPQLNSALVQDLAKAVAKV

SMILES	Ki (CDK2/cyclin A) [nM]	Ki [1] [nM]	inhibition at 1 µM [2] [%]
CC(CN(C)C)NC(=O)c1ccc(Nc2nc(N)c(C(=O)c3c(F)cccc3F)s2)cc1 (stereo not drawn) [Example A20, 4-[4-Amino-5-(2,6-difluoro-benzoyl)-thiazol-2-ylamino]-N-(2-dimethylamino-1RS-methyl-ethyl)-benzamide Hydrochloride Salt]	162	150	0
Nc1nc(Nc2ccc(C(=O)NCCc3ccc(O)cc3)cc2)sc1C(=O)c1c(F)cccc1F [Example A14, 4-[4-Amino-5-(2,6-difluoro-benzoyl)-thiazol-2-ylamino]-N-[2-(4-hydroxy-phenyl)-ethyl]-benzamide]	60	42	0
Nc1nc(Nc2ccc(C(=O)NCCN3CCCCC3)cc2)sc1C(=O)c1c(F)cccc1F [Example A15, 4-[4-Amino-5-(2,6-difluoro-benzoyl)-thiazol-2-ylamino]-N-(2-piperidin-1-yl-ethyl)-benzamide]	150	68	0

Other lines, results leading:

Ki (CDK2/cyclin A) [nM]	Ki [1] [nM]	inhibition at 1 µM [2] [%]	SMILES
105	120	0	Nc1nc(Nc2ccc(C(=O)Nc3ccc(N4CCOCC4)cc3)cc2)sc1C(=O)c1c(F)cccc1F [Example A21]
49	82	0	CN1CCC[C@H]1CNC(=O)c1ccc(Nc2nc(N)c(C(=O)c3c(F)cccc3F)s2)cc1 [Example A31, 4-[4-Amino-5-(2,6-difluoro-benzoyl)-thiazol-2-ylamino]-N-(1-methyl-pyrrolidin-2S-yl-methyl)-benzamide Dihydrochloride]
